Measurements taken from ChEMBL document CHEMBL5050850, “Compositions and methods of using the same for treatment of neurodegenerative and mitochondrial disease” (2020).
Values after ≈ are worked out from the molar mass of the structure shown.

Tests used:
[1] = Solubility of compound in PBS; assay type: physicochemical
[2] = Induction of mitophagy in human HeLa MKYP cells treated at 6.3 uM with FCCP/oligomycin for 6 hrs and measured by FACS analysis relative to control; assay type: functional; conditions: 6 h, 6.3 µM
[3] = Induction of mitophagy in human HeLa MKYP cells treated with FCCP/oligomycin for 6 hrs and measured by FACS analysis; assay type: functional, cell-based
HeLa [4] = assay: Cytotoxicity against human HeLa MKYP cells assessed as percentage of DAPI-positive cells at 50 uM and measured by DAPI staining method; assay type: toxicity, cell-based
HeLa [5] = assay: Cytotoxicity against human HeLa MKYP cells assessed as cell death at 25 uM treated with FCCP/oliogmycin and measured DAPI staining method assay relative to control; assay type: toxicity, cell-based
HeLa [6] = assay: Cytotoxicity against human HeLa MKYP cells assessed as cell death at 25 uM and measured DAPI staining method assay relative to control; assay type: toxicity, cell-based
[7] = Ratio of highest compound concentration with no observable mitotoxicity to EC50 of compound to induce mitophagy in human HeLa MKYP cells; assay type: functional
[8] = Cmax in mouse at 1 mg/kg, iv; assay type: ADME, organism-based; set-up: route intravenous, dose 1 mg/kg; conditions: in vivo
[9] = Observed AUC in mouse at 1 mg/kg, iv; assay type: ADME, organism-based; set-up: dose 1 mg/kg; conditions: in vivo
[10] = AUC in mouse at 1 mg/kg, iv; assay type: ADME, organism-based; set-up: dose 1 mg/kg; conditions: in vivo
[11] = Cmax in mouse at 10 mg/kg, po; assay type: ADME, organism-based; set-up: route oral, dose 10 mg/kg; conditions: in vivo
[12] = Half-life in mouse at 10 mg/kg, po; assay type: ADME, organism-based; conditions: in vivo
[13] = AUC in mouse at 10 mg/kg, po; assay type: ADME, organism-based; set-up: dose 10 mg/kg; conditions: in vivo
[14] = Oral bioavailability in mouse at 10 mg/kg; assay type: ADME, organism-based; conditions: in vivo
[15] = Cmax in mouse at 50 mg/kg, po; assay type: ADME, organism-based; set-up: route oral, dose 50 mg/kg; conditions: in vivo
[16] = Half-life in mouse at 50 mg/kg, po; assay type: ADME, organism-based; conditions: in vivo
[17] = Observed AUC in mouse 50 mg/kg, po; assay type: ADME, organism-based; set-up: dose 50 mg/kg; conditions: in vivo
[18] = AUC in mouse at 50 mg/kg, po; assay type: ADME, organism-based; set-up: dose 50 mg/kg; conditions: in vivo
[19] = Oral bioavailability in mouse at 50 mg/kg; assay type: ADME, organism-based; conditions: in vivo
[20] = AUC (infinity) in mouse at 1 mg/kg, iv; assay type: ADME, organism-based; set-up: route intravenous, time infinity, dose 1 mg/kg; conditions: in vivo
[21] = AUC (extrapolated) in mouse at 1 mg/kg, iv; assay type: ADME, organism-based; conditions: in vivo
[22] = MRT (infinity) in mouse at 1 mg/kg, iv; assay type: ADME, organism-based; conditions: in vivo
[23] = AUC (infinity) in rat at 1 mg/kg, iv; assay type: ADME, organism-based; set-up: route intravenous, time infinity, dose 1 mg/kg; conditions: in vivo
[24] = AUC (extrapolated) in rat at 1 mg/kg, iv; assay type: ADME, organism-based; conditions: in vivo
[25] = MRT (infinity) in rat at 1 mg/kg, iv; assay type: ADME, organism-based; conditions: in vivo
[26] = Initial plasma concentration in mouse at 10 mg/kg, po; assay type: ADME, organism-based; conditions: in vivo
[27] = AUC (infinity) in mouse at 10 mg/kg, po; assay type: ADME, organism-based; set-up: route oral, time infinity, dose 10 mg/kg; conditions: in vivo
[28] = Apparent volume of distribution in mouse at 10 mg/kg, po; assay type: ADME, organism-based; conditions: in vivo
[29] = MRT (infinity) in mouse at 10 mg/kg, po; assay type: ADME, organism-based; conditions: in vivo
[30] = Initial plasma concentration in rat at 10 mg/kg, po; assay type: ADME, organism-based; conditions: in vivo
[31] = AUC (infinity) in rat at 10 mg/kg, po; assay type: ADME, organism-based; set-up: time infinity, route oral, dose 10 mg/kg; conditions: in vivo
[32] = Apparent volume of distribution in rat at 10 mg/kg, po; assay type: ADME, organism-based; conditions: in vivo
[33] = Brain concentration in mouse at 10 mg/kg, po measured at 0.5 hrs; assay type: ADME, organism-based; conditions: read-out: Drug uptake
[34] = Brain concentration in mouse at 10 mg/kg, po measured at 1 hr; assay type: ADME, organism-based; conditions: read-out: Drug uptake
[35] = Brain concentration in mouse at 10 mg/kg, po measured at 2 hrs; assay type: ADME, organism-based; conditions: read-out: Drug uptake
[36] = Plasma concentration in mouse at 10 mg/kg, po measured at 0.5 hrs; assay type: ADME, organism-based
[37] = Plasma concentration in mouse at 10 mg/kg, po measured at 1 hr; assay type: ADME, organism-based
[38] = Plasma concentration in mouse at 10 mg/kg, po measured at 2 hrs; assay type: ADME, organism-based
[39] = Kidney concentration in mouse at 10 mg/kg, po measured at 0.5 hrs; assay type: ADME, organism-based; conditions: read-out: Drug uptake
[40] = Kidney concentration in mouse at 10 mg/kg, po measured at 1 hr; assay type: ADME, organism-based; conditions: read-out: Drug uptake
[41] = Kidney concentration in mouse at 10 mg/kg, po measured at 2 hrs; assay type: ADME, organism-based; conditions: read-out: Drug uptake
[42] = Brain concentration in mouse at 50 mg/kg, po measured at 0.5 hrs; assay type: ADME, organism-based; conditions: read-out: Drug uptake
[43] = Brain concentration in mouse at 50 mg/kg, po measured at 1 hr; assay type: ADME, organism-based; conditions: read-out: Drug uptake
[44] = Brain concentration in mouse at 50 mg/kg, po measured at 2 hrs; assay type: ADME, organism-based; conditions: read-out: Drug uptake
[45] = Plasma concentration in mouse at 50 mg/kg, po measured at 0.5 hrs; assay type: ADME, organism-based
[46] = Plasma concentration in mouse at 50 mg/kg, po measured at 1 hr; assay type: ADME, organism-based
[47] = Plasma concentration in mouse at 50 mg/kg, po measured at 2 hrs; assay type: ADME, organism-based
[48] = Kidney concentration in mouse at 50 mg/kg, po measured at 0.5 hrs; assay type: ADME, organism-based; conditions: read-out: Drug uptake
[49] = Kidney concentration in mouse at 50 mg/kg, po measured at 1 hr; assay type: ADME, organism-based; conditions: read-out: Drug uptake
[50] = Kidney concentration in mouse at 50 mg/kg, po measured at 2 hrs; assay type: ADME, organism-based; conditions: read-out: Drug uptake
[51] = Half-life in rat at 10 mg/kg, po; assay type: ADME, organism-based; conditions: in vivo

**Q.** Which solubility [1] does the source give for `FC(F)(F)c1cc2c(NC3CCCc4ccccc43)ncnc2[nH]1` (stereo in doubt) here?
**A.** 1 µM (≈ 0.332 µg/mL)

**Q.** What about the Activity [2] of the same compound?
**A.** 55.5%

**Q.** And the EC50 [3]?
**A.** 440 nM

**Q.** What about the Activity (HeLa [4]) of the same compound?
**A.** 2.1%

**Q.** What about the Activity (HeLa [5]) of the same compound?
**A.** 10.7%

**Q.** And the Activity (HeLa [6])?
**A.** 2.59%

**Q.** And the Ratio [7]?
**A.** 40.02

**Q.** And the Cmax [8]?
**A.** 1450 nM

**Q.** And the AUC [9]?
**A.** 1.4 µM·h

**Q.** And the AUC [10]?
**A.** 1.5 µM·h

**Q.** And the Cmax [11]?
**A.** 1080 nM

**Q.** What about the t1/2 [12] of the same compound?
**A.** 2 h

**Q.** What about the AUC [13] of the same compound?
**A.** 2.6 µM·h

**Q.** And the bioavailability [14]?
**A.** 17.4%

**Q.** And the Cmax [15]?
**A.** 9800 nM

**Q.** And the half-life [16]?
**A.** 3.9 h

**Q.** What about the AUC [17] of the same compound?
**A.** 27.4 µM·h

**Q.** What about the AUC [18] of the same compound?
**A.** 35.5 µM·h

**Q.** And the bioavailability [19]?
**A.** 37.9%

**Q.** And the AUC(0-inf) [20]?
**A.** 487 ng·h/mL

**Q.** What about the “%AUCextra” value [21] of the same compound?
**A.** 1.1%

**Q.** What about the MRT inf [22] of the same compound?
**A.** 0.7 h

**Q.** What about the AUC(0-inf) [23] of the same compound?
**A.** 838 ng·h/mL

**Q.** What about the “%AUCextra” value [24] of the same compound?
**A.** 2.5%

**Q.** And the MRT inf [25]?
**A.** 2 h

**Q.** What about the C0 [26] of the same compound?
**A.** 0.5 ng/mL

**Q.** What about the AUC [27] of the same compound?
**A.** 803.3 ng·h/mL

**Q.** What about the Vz [28] of the same compound?
**A.** 5.4 L/kg

**Q.** And the MRT inf [29]?
**A.** 17.4 h

**Q.** What about the C0 [30] of the same compound?
**A.** 2.6 ng/mL

**Q.** And the AUC [31]?
**A.** 7348.4 ng·h/mL

**Q.** And the Vz [32]?
**A.** 2.2 L/kg

**Q.** And the concentration at 0.5 h [33]?
**A.** 526 ng/g

**Q.** And the concentration at 1 h [34]?
**A.** 737 ng/g

**Q.** What about the concentration at 2 h [35] of the same compound?
**A.** 435 ng/g

**Q.** And the concentration at 0.5 h [36]?
**A.** 372 ng/g

**Q.** And the concentration at 1 h [37]?
**A.** 276 ng/g

**Q.** What about the concentration at 2 h [38] of the same compound?
**A.** 146 ng/g

**Q.** What about the concentration at 0.5 h [39] of the same compound?
**A.** 1050 ng/g

**Q.** And the concentration at 1 h [40]?
**A.** 1290 ng/g

**Q.** What about the concentration at 2 h [41] of the same compound?
**A.** 893 ng/g

**Q.** What about the concentration at 0.5 h [42] of the same compound?
**A.** 3340 ng/g

**Q.** And the concentration at 1 h [43]?
**A.** 6370 ng/g

**Q.** What about the concentration at 2 h [44] of the same compound?
**A.** 3980 ng/g

**Q.** What about the concentration at 0.5 h [45] of the same compound?
**A.** 1900 ng/g

**Q.** What about the concentration at 1 h [46] of the same compound?
**A.** 2080 ng/g

**Q.** And the concentration at 2 h [47]?
**A.** 1420 ng/g

**Q.** What about the concentration at 0.5 h [48] of the same compound?
**A.** 6430 ng/g

**Q.** What about the concentration at 1 h [49] of the same compound?
**A.** 11500 ng/g

**Q.** And the concentration at 2 h [50]?
**A.** 7480 ng/g

**Q.** What about the t1/2 [51] of the same compound?
**A.** 3.7 h
